Test results: PMC7226963, “CCN-Based Therapeutic Peptides Modify Pancreatic Ductal Adenocarcinoma Microenvironment and Decrease Tumor Growth in Combination with Chemotherapy” (Cells, 2020)
Like-named read-outs stand apart in the source and are kept apart here. Blank lines part the entries; values can stand above or below the molecule they belong to.

Legend:
[1] = Gemcitabine and metabolites in tumor and plasma, with or without BLR200 (HPLC-MS); details: for Change of concentration (tumor/plasma ratio) in BLR200-treated mice: BLR200 10 µg/kg i.p. every other day from day 11, 4 treatments, gemcitabine 100 mg/kg i.v. single bolus day 17, 30 min and 1 h, n = 4, not statistically significant
Experimental: FC1199-bearing mice were treated i.p with BLR200 (10 µg/kg) from day 11 for a total of 4 treatments, every other day. On day 17, mice were treated with gemcitabine (100 mg/kg, i.v., single bolus). After 30 min and 1 h, plasma and tumors were collected for HPLC measurement of gemcitabine and metabolites. The plasma fraction added with 10 µL tetrahydrouridine (THU) 2.5 mg/mL was immediately separated by centrifugation at 3200× g for 15 min at 4 °C and stored at −20 °C until analysis. Tumors were immediately frozen in liquid nitrogen and stored at −20 °C until analysis. Extraction and analysis of gemcitabine (dFdc, dFdCTP, and dFdU) in tumors and plasma were carried out according to Bapiro et al. [27].
Briefly, tumors were weighted, spiked with 2′-deossicitidine as the internal standard (IS) at a final concentration of 1 ng/mg, and homogenized with ice-cold acetonitrile (ACN) 50% (v/v) containing THU 25 µg/mL in a Precellys Evolution homogenizer (Bertin Technologies S.A.S., Montigny-le-Bretonneux, France). Fifty microliters of homogenate were added with 200 µL ACN 50% (v/v), vortexed, and centrifuged at 13,200 rpm for 10 min at 4 °C. The supernatant was dried under N2 flux and the residue reconstituted with 100 µL of milliQ water. Concerning plasma, 25 µL were spiked with 1 µL of 10 µg/mL of IS and processed in the same way as tumors. The reconstituted tumors and plasma extracts were analyzed by injecting 2 µL in a UHPLC System connected to a LCMS-8060 (Shimadzu Scientific Instruments, Columbia, MD, USA) with a dual ion source. […] The mass spectrometer worked with an electrospray ionization source operating both in the negative and positive Multiple Reaction Monitoring mode, quantifying target ions m/z 264→59.25 for gemcitabine (positive), m/z 502→158.9 for dFdCTP (negative), m/z 263.1→220 for dFdU (negative), and m/z 228.1→112.05 for IS (positive). The lower limit of quantitation (LOQ) was 0.2 ng/mg for gemcitabine, 0.4 ng/mg for dFdU, and 0.5 ng/mg for dFdCTP in tumor samples, while it was 0.01 µg/mL for gemcitabine and 0.02 µg/mL for dFdU in plasma samples.

[2] = tested on: FC1199 orthotopic tumors; assay: Orthotopic FC1199 PDAC model: tumor burden (pancreas weight) and ascites; format: in vivo, C57BL/6 mice; details: peptides 4.5 µg/kg i.p. from day 11 or gemcitabine 40 mg/kg i.v.; n = 7
Experimental: Six- to eight-week old female C57BL/6 mice (Charles River Laboratories, Lecco, Italy) were maintained under specific-pathogen-free conditions, with constant temperature and humidity, and handled using aseptic procedures. FC1199 cells (5 × 10^4) were implanted orthotopically in the pancreas as described. Gemcitabine was administered i.v. at 40 mg/kg (see scheme in Figure 4A). Control groups received the same volume of vehicle. Mice were weighed every other day as a measure of drug toxicity. […] Tumor burden was evaluated at the end of the experiment, as pancreas weight. Peritoneal ascitic fluid was collected with a syringe and the volume recorded. Animals with a collectable peritoneal fluid (≥100 µL) were considered positive for ascites. Liver of mice were analyzed for macroscopic metastases, and no metastatic foci was detected in any group.

[3] = tested on: FC1199 cells; assay: FC1199 proliferation assay (crystal violet); format: cell-based, murine; details: Mus musculus, 72 h, 72 h incubation, mean and SD of two experiments, read-out: IC50 of gemcitabine on FC1199 cell proliferation
Experimental: FC1199 were seeded into 96-well plates in DMEM supplemented with 5% FCS. At 24 h after seeding, cells were exposed to increasing concentrations of BLR100 and BLR200 alone or in combination with increasing concentrations of gemcitabine. After a 72 h incubation, cells were fixed and stained with crystal violet solution (Sigma–Aldrich, Merck Life Science, Milano, Italy). The staining was eluted with a 1:1 ethanol/0.1 M sodium citrate solution, and the absorbance at 595 nm was measured. Each condition was tested in triplicate.

[4] = tested on: PANC-1 orthotopic; details: PANC-1 orthotopic preclinical model; cited from earlier work
Text: (§1) CCN2 has recently been proposed as a target for PDAC therapy. […] FG-3019 (pamrevlumab) is currently in a Phase 3 clinical trial to evaluate its efficacy and safety as neoadjuvant treatment in combination with gemcitabine plus nab-paclitaxel in the treatment of locally advanced, unresectable pancreatic cancer.

[5] = tested on: KPC tumor; details: LSL-KrasG12D/+;LSL-Trp53R172H/+;Pdx-1-Cre (KPC) mice; cited from earlier work
Text: as §1

Molecule: Nc1ccn([C@@H]2O[C@H](COP(=O)(O)OP(=O)(O)OP(=O)(O)O)[C@@H](O)C2(F)F)c(=O)n1 [dFdCTP, gemcitabine triphosphate]
Concentration of the metabolite in tumors and plasma ([1]; gemcitabine 100 mg/kg i.v. single bolus, with or without BLR200 10 µg/kg, 30 min and 1 h, LOQ 0.5 ng/mg in tumor): undetectable in both groups

B1: FG-3019: CCN2-targeting mAb (antibody, chains of the INN, looked up, V domains shown)
VH: EGQLVQSGGGLVHPGGSLRLSCAGSGFTFSSYGMHWVRQAPGKGLEWVSGIGTGGGTYSTDSVKGRFTISRDNAKNSLYLQMNSLRAEDMAVYYCARGDYYGSGSFFDCWGQGTLVTVSS
VL: DIQMTQSPSSLSASVGDRVTITCRASQGISSWLAWYQQKPEKAPKSLIYAASSLQSGVPSRFSGSGSGTDFTLTISSLQPEDFATYYCQQYNSYPPTFGQGTKLEIK
Tumor growth and metastasis [4]: inhibited tumor growth and metastasis | Tumor response to gemcitabine [5]: enhanced tumor response

The next lines start with results.

Change of concentration (tumor/plasma ratio) in BLR200-treated mice [1]: small increase
Molecule: Nc1ccn([C@@H]2O[C@H](CO)[C@@H](O)C2(F)F)c(=O)n1 [gemcitabine, Gemcitabine]
Effect on tumor growth as monotherapy, late start [2]: only a marginal effect on tumor growth | IC50 ([3]; gemcitabine alone, DMEM 5% FCS, absorbance 595 nm): 13.5 ± 4.6 nM | IC50 ([3]; gemcitabine with BLR100 20 nM): 13.2 ± 3.9 nM | IC50 ([3]; gemcitabine with BLR100 100 nM): 11.9 ± 3.7 nM

Change of concentration (tumor/plasma ratio) in BLR200-treated mice [1]: small increase
Molecule: O=c1ccn([C@@H]2O[C@H](CO)[C@@H](O)C2(F)F)c(=O)[nH]1 [dFdU, 2′,2′-difluorodeoxyuridine]
